According to patent US10287301B2 (Achillion Pharmaceuticals, Inc., priority 2015, dated 2019):

Target: Human Factor D (Homo sapiens (Human), UniProt P00746)
Experiment: Human Factor D Assay
Format: biochemical
Settings: not given
Method in brief: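 IC50 values derive from nonlinear regression of Factor D reaction rates against compound concentration. The enzyme, purified from human serum, is used at 80 nM final with a 5 min room-temperature compound preincubation in 50 mM Tris, 1M NaCl, pH 7.5, before 100 μM Z-L-Lys-SBzl plus 100 μM DTNB are added.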

Chain of Human Factor D (P00746 26-253): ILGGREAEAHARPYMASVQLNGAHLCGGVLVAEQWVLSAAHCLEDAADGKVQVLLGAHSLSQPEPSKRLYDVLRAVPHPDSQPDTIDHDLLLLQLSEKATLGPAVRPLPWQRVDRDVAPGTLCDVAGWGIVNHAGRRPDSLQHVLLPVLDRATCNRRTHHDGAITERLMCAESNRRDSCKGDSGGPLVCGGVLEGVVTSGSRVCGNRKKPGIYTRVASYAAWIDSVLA

Compound | IC50
CC(=O)c1nn(CC(=O)N2[C@@H]3CC[C@@H](C3)[C@H]2C(=O)Nc2cccc(Br)n2)c2ccc(-c3cnc(C)nc3)cc12 [Compound 491, (1R,3S,4S)-2-(2-(3-acetyl-5-(2-methylpyrimidin-5-yl)-1H-indazol-1-yl)acetyl)-N-(6-bromopyridin-2-yl)-2-azabicyclo[2.2.1] heptane-3-carboxamide] | < 1000 nM
Cc1cccc(NC(=O)[C@@H]2[C@H]3CC[C@H](C3)N2C(=O)Cn2cc(C(N)=O)c3cc(-c4ccc5cccnc5c4)ccc32)n1 [Compound 499, 1-(2-((1R,3S,4S)-3-(6-Methylpyridin-2-ylcarbamoyl)-2-azabicyclo[2.2.1]heptan-2-yl)-2-oxoethyl)-5-(quinolin-7-yl)-1H-indole-3-carboxamide] | 1000 to 10000 nM
Cc1cccc(NC(=O)[C@@H]2[C@H]3CC[C@H](C3)N2C(=O)Cn2cc(C(N)=O)c3cc(-c4ccc(F)nc4)ccc32)n1 [Compound 500, 5-(6-Fluoropyridin-3-yl)-1-(2-((1R,3S,4S)-3-(6-methylpyridin-2-ylcarbamoyl)-2-azabicyclo[2.2.1]heptan-2-yl)-2-oxoethyl)-1H-indole-3-carboxamide] | > 10000 nM
CC(=O)c1nn(CC(=O)N2C[Si](C)(C)C[C@H]2C(=O)Nc2cccc(Br)n2)c2ccc(-c3cnc(C)nc3)cc12 [Compound 514, (R)-1-(2-(3-acetyl-5-(2-Methylpyrimidin-5-yl)-1H-indazol-1-yl)acetyl)-N-(6-bromopyridin-2-yl)-3,3-dimethyl-1,3-azasilolidine-5-carboxamide] | 1000 to 10000 nM

Same assay, conditions: Table 3; Human Factor D 80 nM, substrate Z-L-Lys-SBzl; read-out: IC50 (Stars)

Compound | IC50
CC(=O)c1nn(CC(=O)N2[C@H](C(=O)Nc3cccc(Br)n3)C[C@@]3(C)C[C@@H]23)c2ccc(-c3cnc(N)nc3)cc12 [Compound 480, (1R,3S,5R)-2-(2-(3-Acetyl-5-(2-aminopyrimidin-5-yl)-1H-indazol-1-yl)acetyl)-N-(6-bromopyridin-2-yl)-5-methyl-2-azabicyclo[3.1.0]hexane-3-carboxamide] | < 1000 nM
CC(=O)c1cn(CC(=O)N2CC[C@H]2C(=O)Nc2cccc(C)n2)c2ccc(-c3cnc(C)nc3)cc12 [Compound 481, (S)-1-(2-(3-a=Acetyl-5-(2-methylpyrimidin-5-yl)-1H-indol-1-yl)acetyl)-N-(6-methylpyridin-2-yl)azetidine-2-carboxamide] | > 10000 nM
CC(=O)c1nn(CC(=O)N2[C@@H]3C[C@@H]3C[C@H]2C(=O)NCC(F)=C(C)C)c2ccc(-c3cnc(C)nc3)cc12 [Compound 482, (1R,3S,5R)-2-(2-(3-acetyl-5-(2-methylpyrimidin-5-yl)-1H-indazol-1-yl)acetyl)-N-(2-fluoro-3-methylbut-2-en-1-yl)-2-azabicyclo[3.1.0] hexane-3-carboxamide] | < 1000 nM
CC(=O)c1nn(CC(=O)N2C[C@H](F)C[C@H]2C(=O)NCc2cccc(Br)n2)c2ccc(-c3cnc(C)nc3)cc12 [Compound 483, (2S,4R)-1-(2-(3-Acetyl-5-(2-methylpyrimidin-5-yl)-1H-indazol-1-yl)acetyl)-N-((6-bromopyridin-2-yl)methyl)-4-fluoropyrrolidine-2-carboxamide] | < 1000 nM
COc1cc(Br)nc(NC(=O)[C@@H]2C[C@@]3(C)C[C@H]3N2C(=O)Cn2nc(C(C)=O)c3cc(-c4cnc(C)nc4)ccc32)c1 [Compound 484, (1R,3S,5R)-2-(2-(3-Acetyl-5-(2-methylpyrimidin-5-yl)-1H-indazol-1-yl)acetyl)-N-(6-bromo-4-methoxypyridin-2-yl)-5-methyl-2-azabicyclo[3.1.0]hexane-3-carboxamide] | < 1000 nM
CC(=O)c1nn(CC(=O)N2[C@H](C(=O)Nc3nc(Br)ccc3C)C[C@@]3(C)C[C@@H]23)c2ccc(-c3cnc(C)nc3)cc12 [Compound 485, (1R,3S,5R)-2-(2-(3-Acetyl-5-(2-methylpyrimidin-5-yl)-1H-indazol-1-yl)acetyl)-N-(6-bromo-3-methylpyridin-2-yl)-5-methyl-2-azabicyclo[3.1.0]hexane-3-carboxamide] | < 1000 nM
COc1ncc(-c2ccc3c(c2)c(C(C)=O)nn3CC(=O)N2[C@H](C(=O)Nc3cncc(Br)n3)C[C@@]3(C)C[C@@H]23)cn1 [Compound 486] | < 1000 nM
CC(=O)c1nn(CC(=O)N2C[C@H]3C[C@H]3[C@H]2C(=O)Nc2nc(Br)ccc2C)c2ccc(-c3cnc(C)nc3)cc12 [Compound 488, (1R,2S,5S)-3-(2-(3-Acetyl-5-(2-methylpyrimidin-5-yl)-1H-indazol-1-yl)acetyl)-N-(6-bromo-3-methylpyridin-2-yl)-3-azabicyclo[3.1.0]hexane-2-carboxamide] | < 1000 nM
Cc1cccc(NC(=O)[C@@H]2[C@H]3CC[C@H](C3)N2C(=O)Cn2cc(C(N)=O)c3cc(-c4ccc5ccccc5c4)ccc32)n1 [Compound 489, 1-(2-((1R,3S,4S)-3-((6-Methylpyridin-2-yl)carbamoyl)-2-azabicyclo[2.2.1]heptan-2-yl)-2-oxoethyl)-5-(naphthalen-2-yl)-1H-indole-3-carboxamide] | > 10000 nM
Cc1cccc(NC(=O)[C@@H]2[C@H]3CC[C@H](C3)N2C(=O)Cn2cc(C(N)=O)c3cc(-c4cccc(C#N)c4)ccc32)n1 [Compound 497, 5-(3-Cyanophenyl)-1-(2-((1R,3S,4S)-3-(6-methylpyridin-2-ylcarbamoyl)-2-azabicyclo[2.2.1]heptan-2-yl)-2-oxoethyl)-1H-indole-3-carboxamide] | > 10000 nM
Cc1cccc(NC(=O)[C@@H]2[C@H]3CC[C@H](C3)N2C(=O)Cn2cc(C(N)=O)c3cc(-c4ccc(N)nc4)ccc32)n1 [Compound 498, 5-(6-Aminopyridin-3-yl)-1-(2-((1R,3S,4S)-3-(6-methylpyridin-2-ylcarbamoyl)-2-azabicyclo[2.2.1]heptan-2-yl)-2-oxoethyl)-1H-indole-3-carboxamide] | > 10000 nM
Cc1cccc(NC(=O)[C@@H]2[C@H]3CC[C@H](C3)N2C(=O)Cn2cc(C(N)=O)c3cc(-c4cccnc4)ccc32)n1 [Compound 501, 1-(2-((1R,3S,4S)-3-(6-Methylpyridin-2-ylcarbamoyl)-2-azabicyclo[2.2.1]heptan-2-yl)-2-oxoethyl)-5-(pyridin-3-yl)-1H-indole-3-carboxamide] | > 10000 nM
CC(=O)c1nn(CC(=O)N2C[C@H](F)C[C@H]2C(=O)NC/C(F)=C(/C)c2cccc(Cl)c2)c2ccc(-c3cnc(C)nc3)cc12 [Compound 503, (2S,4R)-1-(2-(3-acetyl-5-(2-methylpyrimidin-5-yl)-1H-indazol-1-yl)acetyl)-N-((E)-3-(3-chlorophenyl)-2-fluorobut-2-en-1-yl)-4-fluoropyrrolidine-2-carboxamide] | < 1000 nM
CC(=O)c1nn(CC(=O)N2C[C@H](F)C[C@H]2C(=O)Nc2cccc(Br)n2)c2ccc(-c3ccc4ncncc4c3)cc12 [Compound 504, (2S,4R)-1-(2-(3-Acetyl-5-(quinazolin-6-yl)-1H-indazol-1-yl)acetyl)-N-(6-bromopyridin-2-yl)-4-fluoropyrrolidine-2-carboxamide] | < 1000 nM
CC(=O)c1nn(CC(=O)N2C[C@H](F)C[C@H]2C(=O)Nc2cccc(Br)n2)c2ccc(-c3cnc(OCC(F)(F)F)nc3)cc12 [Compound 505, (2S,4R)-1-(2-(3-Acetyl-5-(2-(S2,2,2-trifluoroethoxy)pyrimidin-5-yl)-1H-indazol-1-yl)acetyl)-N-(6-bromopyridin-2-yl)-4-fluoropyrrolidine-2-carboxamide] | < 1000 nM
CC(=O)c1nn(CC(=O)N2[C@@H]3C[C@@H]3C[C@H]2C(=O)NC/C(F)=C(/C)c2cccc(Cl)c2)c2ccc(-c3cnc(C)nc3)cc12 [Compound 506, (1R,3S,5R)-2-(2-(3-Acetyl-5-(2-methylpyrimidin-5-yl)-1H-indazol-1-yl)acetyl)-N-((E)-3-(3-chlorophenyl)-2-fluorobut-2-en-1-yl)-2-azabicyclo[3.1.0]hexane-3-carboxamide] | < 1000 nM
CC(=O)c1nn(CC(=O)N2C[C@H](F)C[C@H]2C(=O)Nc2cccc(Cl)c2)c2ccc(-c3cnc(C)nc3)cc12 [Compound 508, (2S,4R)-1-(2-(3-Acetyl-5-(2-methylpyrimidin-5-yl)-1H-indazol-1-yl)acetyl)-N-(3-chlorophenyl)-4-fluoropyrrolidine-2-carboxamide] | < 1000 nM
CC(=O)c1nn(CC(=O)N2C[C@H](F)C[C@H]2C(=O)Nc2ccc(F)c(Br)c2)c2ccc(-c3cnc(C)nc3)cc12 [Compound 509, (2S,4R)-1-(2-(3-Acetyl-5-(2-methylpyrimidin-5-yl)-1H-indazol-1-yl)acetyl)-N-(3-bromo-4-fluorophenyl)-4-fluoropyrrolidine-2-carboxamide] | < 1000 nM
CC(=O)c1nn(CC(=O)N2C[C@@](F)(CF)C[C@H]2C(=O)Nc2nc(Br)ccc2C)c2ccc(-c3cnc(C)nc3)cc12 [Compound 511, (2S,4R)-1-(2-(3-Acetyl-5-(2-methylpyrimidin-5-yl)-1H-indazol-1-yl)acetyl)-N-(6-bromo-3-methylpyridin-2-yl)-4-fluoro-4-(fluoromethyl)pyrrolidine-2-carboxamide] | < 1000 nM
CC(=O)N[C@H]1[C@@H](C(=O)Nc2cccc(Br)n2)N(C(=O)Cn2nc(C(C)=O)c3cc(-c4cnc(C)nc4)ccc32)C[C@@H]1F [Compound 512, (2S,3S,4S)-3-Acetamido-1-(2-(3-acetyl-5-(2-methylpyrimidin-5-yl)-1H-indazol-1-yl)acetyl)-N-(6-bromopyridin-2-yl)-4-fluoropyrrolidine-2-carboxamide] | < 1000 nM
CC(=O)N[C@@H]1CN(C(=O)Cn2nc(C(C)=O)c3cc(-c4cnc(C)nc4)ccc32)[C@H](C(=O)Nc2cccc(Br)n2)[C@H]1F [Compound 513, (2R,3S,4R)-4-Acetamido-1-(2-(3-acetyl-5-(2-methylpyrimidin-5-yl)-1H-indazol-1-yl)acetyl)-N-(6-bromopyridin-2-yl)-3-fluoropyrrolidine-2-carboxamide] | < 1000 nM
Cc1cccc(NC(=O)[C@@H]2[C@H]3CC[C@H](C3)N2C(=O)Cn2cc(C(N)=O)c3cc(-c4ccc5c(c4)CCCC5)ccc32)n1 [Compound 515, 1-(2-((1R,3S,4S)-3-(6-Methylpyridin-2-ylcarbamoyl)-2-azabicyclo[2.2.1]heptan-2-yl)-2-oxoethyl)-5-(5,6,7,8-tetrahydronaphthalen-2-yl)-1H-indole-3-carboxamide] | > 10000 nM
